In the supplement of paper PMC11368000:

How the values were obtained:
Conditions in all cases: exposure time: 90 min
30145 [1] = donor line of iPSC-derived cardiomyocytes; experiment: POD (EC05) for increase in beat frequency (positive chronotrope) vs vehicle; higher = less potent (higher point of departure)
Procedure, shortened: (§1)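 Cardiomyocytes derived from human iPSCs of 16 donors were grown 14 days in gelatin-coated 384-well plates, loaded 2 h with a fluorescent Ca2+ dye, then exposed for 90 min at 37 °C to final concentrations of 0.1, 1, 10 and 100 µM in 0.5% DMSO. A FLIPR Tetra recorded Ca2+ flux at 8 frames/s for 100 s before and after exposure. Points of departure for each donor were derived by hierarchical Bayesian Hill fitting of vehicle-normalised beat frequency, decay-to-rise ratio or peak frequency. The thresholds applied were a 5% change, or a 95% loss for peak frequency.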

1434 [2] = donor line of iPSC-derived cardiomyocytes; experiment: POD (EC05) for decrease in beat frequency (negative chronotrope) vs vehicle; higher = less potent (higher point of departure)
Procedure, shortened: as §1

1083 [3] = donor line of iPSC-derived cardiomyocytes; experiment: as above
Procedure, shortened: as §1

1392 [4] = donor line of iPSC-derived cardiomyocytes; experiment: as above
Procedure, shortened: as §1

1531 = donor line of iPSC-derived cardiomyocytes; experiment: POD (EC05) for increase in Ca2+ transient decay-to-rise ratio (QT prolongation) vs vehicle; higher = less potent (higher point of departure)
Experimental: (§2)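 Human iPSC-derived cardiomyocytes from 16 donors were exposed for 90 min at 37 °C to each PFAS at 0.1, 1, 10 and 100 µM in 0.5% DMSO, 384-well plates. Kinetic Ca2+ flux (FLIPR) and Hoechst nuclei counts were normalised to vehicle wells and fitted with a hierarchical Bayesian Hill model to give donor-specific PODs: EC05 for beat-rate increase or decrease and for decay-to-rise ratio increase (QT proxy), EC95 for peak-frequency loss (asystole), EC10 for total cell number loss. 0.03 µM is the lower bound.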

11235 = donor line of iPSC-derived cardiomyocytes; experiment: as above
Experimental: as §2

1535 = donor line of iPSC-derived cardiomyocytes; experiment: as above
Experimental: as §2

30145 [5] = experiment: as above
Experimental: as §2

30171 = donor line of iPSC-derived cardiomyocytes; experiment: as above
Experimental: as §2

1434 [6] = experiment: as above
Experimental: as §2

20032 = donor line of iPSC-derived cardiomyocytes; experiment: as above
Experimental: as §2

1118 = donor line of iPSC-derived cardiomyocytes; experiment: as above
Experimental: as §2

1309 = donor line of iPSC-derived cardiomyocytes; experiment: as above
Experimental: as §2

1083 [7] = experiment: as above
Experimental: as §2

1368 = donor line of iPSC-derived cardiomyocytes; experiment: as above
Experimental: as §2

1392 [8] = experiment: as above
Experimental: as §2

1565 = donor line of iPSC-derived cardiomyocytes; experiment: as above
Experimental: as §2

1518 = donor line of iPSC-derived cardiomyocytes; experiment: as above
Experimental: as §2

1516 = donor line of iPSC-derived cardiomyocytes; experiment: as above
Experimental: as §2

20084 = donor line of iPSC-derived cardiomyocytes; experiment: as above
Experimental: as §2

Structure (SMILES)	POD vs vehicle 30145 [1]	POD vs vehicle 1434 [2]	POD vs vehicle 1083 [3]	POD vs vehicle 1392 [4]	POD vs vehicle 1531	POD vs vehicle 11235	POD vs vehicle 1535	POD vs vehicle 30145 [5]	POD vs vehicle 30171	POD vs vehicle 1434 [6]	POD vs vehicle 20032	POD vs vehicle 1118	POD vs vehicle 1309	POD vs vehicle 1083 [7]	POD vs vehicle 1368	POD vs vehicle 1392 [8]	POD vs vehicle 1565	POD vs vehicle 1518	POD vs vehicle 1516	POD vs vehicle 20084
O=C(O)C(F)(F)C(F)(F)F [Perfluoropropanoic_acid]	> 100 µM	> 100 µM	> 100 µM	> 100 µM	0.307 µM	> 100 µM	> 100 µM	> 100 µM	> 100 µM	> 100 µM	> 100 µM	> 100 µM	> 100 µM	> 100 µM	> 100 µM	> 100 µM	> 100 µM	> 100 µM	> 100 µM	> 100 µM
O=C(O)C(F)(F)C(F)(F)C(F)(F)OC(F)(F)F [Perfluoro(4-methoxybutanoic)_acid]	> 100 µM	> 100 µM	> 100 µM	> 100 µM	> 100 µM	> 100 µM	> 100 µM	> 100 µM	> 100 µM	> 100 µM	> 100 µM	> 100 µM	> 100 µM	> 100 µM	> 100 µM	> 100 µM	> 100 µM	> 100 µM	> 100 µM	> 100 µM
O=S(=O)(O)C(F)(F)C(F)(F)C(F)(F)C(F)(F)F [Perfluorobutanesulfonic_acid]	–	> 100 µM	> 100 µM	> 100 µM	> 100 µM	> 100 µM	> 100 µM	> 100 µM	> 100 µM	> 100 µM	> 100 µM	> 100 µM	> 100 µM	> 100 µM	> 100 µM	> 100 µM	> 100 µM	> 100 µM	39.7 µM	> 100 µM
O=C(O)C(F)(F)C(F)(F)C(F)F [2,2,3,3,4,4-Hexafluorobutanoic_acid]	–	> 100 µM	> 100 µM	> 100 µM	> 100 µM	> 100 µM	> 100 µM	> 100 µM	> 100 µM	> 100 µM	> 100 µM	> 100 µM	> 100 µM	> 100 µM	> 100 µM	> 100 µM	> 100 µM	–	–	> 100 µM
OCC(F)(F)C(F)(F)C(F)(F)F [Heptafluorobutanol]	–	> 100 µM	> 100 µM	> 100 µM	> 100 µM	> 100 µM	> 100 µM	> 100 µM	> 100 µM	> 100 µM	> 100 µM	> 100 µM	> 100 µM	> 100 µM	> 100 µM	> 100 µM	> 100 µM	–	–	> 100 µM
